Experimental data reported in patent US6811990B1, “Methods and compositions for coupled luminescent assays” (priority 2001, dated 2004).
Read-outs that look alike come from different tables or passages of the source.

Experiments:
[1] = system: G3PDH or PGK; experiment: Stop reagent test in DeathTRAK reaction with G3PDH test enzyme; type: biochemical; settings: ~3 mM final BPV, added after 21 minutes, with and without added PGK
Source text: In another aspect, the present invention provides methods and compositions for a single-timepoint coupled luminescent assay, making use of a stop reagent to end the production of the high-energy molecule that is the luciferase substrate, while allowing the luciferase reaction to continue. In a preferred embodiment of this concept, an inhibitor of G3PDH or PGK is used to stop production of ATP in the DeathTRAK reactions of Examples 1 and 2. […] It is also possible to perform a single read without a stop reagent, but the stop reagent allows the read to be done at a time convenient to the user, multiple times, or for an extended period. […] Any molecule which inhibits G3PDH and/or PGK, but inhibits luciferase to a lesser or insignificant degree, might be used.
To a 0.5-mL aliquot of this cocktail, 0.0016 mL of 1:1,000,000-diluted PGK were added (termed “+PGK” cocktail). Two 0.045-mL aliquots of the standard unoptimized cocktail and two 0.045-mL aliquots of the “+PGK” cocktail were measured into a luminescent microtiter plate. 0.005 mL of 1:100,000-diluted G3PDH was transferred to each of these four aliquots of cocktail. […] Use of this or an alternative stop reagent allows the user to delay reading the plate, while maintaining the relative signal strengths of the samples.

[2] = system: E. coli; experiment: Colony-forming unit (CFU) tests of antibiotic-treated cultures; type: cell-based; settings: E. coli cultures plated at various dilutions
[3] = system: E. coli strain K1; experiment: DeathTRAK proliferation/viability mode after polymyxin B/lysozyme lysis, antibiotics on E. coli; type: cell-based; settings: for Proliferation/Viability: E. coli, Table V, DeathTRAK readout after lytic agent
Protocol: (§1) FIGS. 13-15 illustrate the use of cytotoxicity/proliferation mode to characterize the effects of various antibiotics on E. coli cells. First, the cytotoxicity signal was obtained by adding the DeathTRAK reagent cocktail directly to the toxicity reaction, three hours after the antibiotics were added to the E. coli culture. The luminance was measured and recorded (FIG. 13), whereupon the lytic agent was added, and the luminance was immediately measured again (FIG. 14).
(§2) E. coli (strain K1, obtained from Dr. Craig Rubens of Children's Hospital and Regional Medical Center, Seattle, Wash.) were inoculated from a frozen permanent into 1-2 mL of LB, grown overnight, diluted 1:20 into LB, grown a further 106 minutes at 37C with 240 rpm shaking, harvested by centrifugation, washed twice with LB, and resuspended to a final A600 of 1.549. It was determined by colony-forming unit assays that an A600 of 2.18 corresponds to ˜3.02×10^8 cells/mL. This was diluted to 200,000/mL and a 10% volume of 10 mM dithiothreitol and 1% protease inhibitor cocktail in LB was added (yielding 0.1% protease inhibitor cocktail after mixing). 55 μL of this mixture was distributed to each test well of a 96-well white luminance microtiter plate, whereupon 5 μL of antibiotic or PBS (vehicle) was added. The plate was shaken at 240 rpm for 3 hours at 37C. 40 μL of DeathTRAK cocktail was then added and luminance was read for ˜8 minutes. The lytic agent was then made up as equal parts 6000 units/mL polymyxin B and 50% lysozyme, both in PBS. 10 μL of this lytic agent was added to each well and the second luminance readout (proliferation/viability) was taken.

[4] = system: Group-A Streptococci
Protocol: (§3) The A600 was 0.356. […] After washing the cells were grown for 90 minutes at 37C with 240 rpm shaking. Antibiotics or PBS (vehicle) were then added in 5 μL, and the protective cocktail containing dithiothreitol and protease inhibitor cocktail was added in a further 5 μL. The cells were incubated at 37C with 240 rpm shaking for a further 90 minutes, whereupon the DeathTRAK cocktail was added and the cytotoxicity read as described above for Gram negatives. The total-lysis agent, 10 μL of 2% Nonidet P-40, was then added, and the proliferation/viability signal was read as above for Gram negatives.

[5] = system: E. coli strain K1; experiment: DeathTRAK cytotoxicity mode, antibiotics on E. coli
Protocol: as §1, §2

[6] = system: Group-A Streptococci; experiment: DeathTRAK cytotoxicity mode, antibiotics on Group-A Streptococci; settings: 90 minutes with antibiotic (FIG. 16)
Protocol: as §3

[7] = system: Group-A Streptococci; experiment: DeathTRAK proliferation/viability mode after Nonidet P-40 lysis, Group-A Streptococci; type: cell-based, Group-A Streptococcus; settings: 90 minutes with antibiotic, after Nonidet P-40 lysis (FIG. 17)
Source text: These are Gram positive organisms. […] However, both cytotoxicity and proliferation effects are seen. […] Finally, the result with gentamicin is distinctive.

[8] = system: DeathTRAK signal; experiment: Effect of detergent on the DeathTRAK signal; type: biochemical; settings: at 0.1% Nonidet P-40; changes very little above approximately 0.1%
Source text: FIG. 12 illustrates the use of cytotoxicity/proliferation mode to measure both the cytotoxic effects and the total cell number after addition of the detergent Nonidet P40 to the mammalian cell line 841 CON. Similar results have been obtained with the PC-3 prostate cancer and T24 bladder-cancer cell lines. In these experiments, the detergent is used as both the toxin and the final lytic agent. Thus the cytotoxicity signal in FIG. 12 represents the signal obtained after the indicated quantities of detergent were added to the cells, and the proliferation signal in the same figure represents the signals obtained after an additional 0.2% Nonidet P-40 was added to all the cells. […] Thus Nonidet P-40 can be used as the universal lytic agent for measuring proliferation of mammalian cells, provided that if it is desired to compare the cytotoxicity and proliferation signals, the final signal must be corrected for the inhibitory effect of the detergent. If the final detergent concentration used is above approximately 0.1%, then this correction will consist essentially of multiplication by a constant. However, if proliferation signals alone are to be compared, this correction is not necessary. Note that in FIG. 12, the proliferation signal is fairly constant. This is because each experiment began with the same number of cells seeded into each well. […]

[9] = E. coli K1, three hours with antibiotic, after lytic agent (FIG. 14)

O=C(O)C(=O)CBr [BPV, bromopyruvic acid]
increase in luminance (ATP production) in DeathTRAK reaction [1]: stopped the increase in luminance

CC1(C)S[C@@H]2[C@H](NC(=O)C(C(=O)O)c3ccccc3)C(=O)N2[C@H]1C(=O)O (some centres unmarked) [Carbenicillin]
toxicity by CFU assay [2]: toxic
effect on proliferation/viability [3, 9]: strong inhibitory effect on proliferation/viability
Proliferation/Viability [3]: +
cytotoxicity signal [4]: identified as a lytic agent
Cytotoxicity [5]: +
cytotoxicity signal [5]: strong cytotoxicity

Nc1ccc(S(N)(=O)=O)cc1 [Sulfanilamide]
effect on proliferation/viability [3, 9]: no toxicity or effect on proliferation/viability
Cytotoxicity [5]: −
cytotoxicity signal [5]: no toxicity

CN[C@H](CC(C)C)C(=O)N[C@H]1C(=O)N[C@@H](CC(N)=O)C(=O)N[C@H]2C(=O)N[C@H]3C(=O)N[C@H](C(=O)N[C@H](C(=O)O)c4cc(O)cc(O)c4-c4cc3ccc4O)[C@H](O)c3ccc(c(Cl)c3)Oc3cc2cc(c3O[C@@H]2O[C@H](CO)[C@@H](O)[C@H](O)[C@H]2O[C@H]2C[C@](C)(N)[C@H](O)[C@H](C)O2)Oc2ccc(cc2Cl)[C@H]1O [Vancomycin]
toxicity by CFU assay [2]: toxic
effect on proliferation/viability [3, 9]: slight inhibition of proliferation/viability
Proliferation/Viability [3]: +
cytotoxicity signal ([5]; E. coli K1, three hours after antibiotics were added (FIG. 13)): slight but statistically significant toxicity
Cytotoxicity ([5]; E. coli, Table V, DeathTRAK cytotoxicity readout): +
cytotoxicity signal [6]: little or no direct cytotoxicity
proliferation/viability signal [7]: very strong reduction in the proliferation/viability signal

Gentamicin
effect on proliferation/viability ([3]; E. coli K1, similar experiment, 90 minutes (FIG. 15)): strong effect on proliferation/viability
Proliferation/Viability [3]: +
Cytotoxicity ([5]; E. coli K1, 90 minutes (FIG. 15)): no cytotoxicity
cytotoxicity signal [6]: negative toxicity signal
proliferation/viability signal [7]: strongly toxic

Nonidet P-40
inhibition of DeathTRAK signal [8]: approximately 45%
